Reference: patent US12077503B2, “Substituted cyclic amides and their use as herbicides” (FMC CORPORATION, priority 2015, dated 2024)
Where two headings read alike, the source gives them in different places.

Legend:
Format in all cases: in vivo
[1] = system: giant foxtail (Setaria faberii); test: Test A preemergence; conditions: Setaria faberi, pre-emergence, 240 h; for pest or weed control at 125 g/ha: 125 g ai/ha; for pest or weed control at 500 g/ha: 500 g ai/ha
How it was run: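 Visual injury, scored on a 0–100 scale relative to untreated controls, was recorded about 10 d after application. Treatments were a preemergence soil spray over planted seeds or a postemergence spray on plants at the one- to two-leaf stage, 2 to 10 cm tall, all in loam soil–sand blend in the greenhouse.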

[2] = system: rice (Oryra sativa); test: Test B flooded paddy test; conditions: Oryza sativa, 250 g ai/ha, Flood, read-out: Rice plant response rating
How it was run: (§1)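 Response scored visually against untreated controls, 0 = no effect and 100 = complete control, 13–15 d after treatment in the greenhouse. Compounds added to paddy water held 3 cm above soil surface. Treatment given at 2-leaf stage.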

[3] = system: barnyardgrass (Echinochloa crus-galli); test: Test B flooded paddy test; conditions: Echinochloa crus-galli, 250 g ai/ha, Flood, read-out: Barnyardgrass plant response rating
How it was run: as §1

[4] = system: ducksalad (Heteranthera limosa); test: Test B flooded paddy test; conditions: Heteranthera limosa, 250 g ai/ha, Flood, read-out: Ducksalad plant response rating
How it was run: as §1

[5] = system: sedge, umbrella (small-flower umbrella sedge, Cyperus difformis); test: Test B flooded paddy test; conditions: Cyperus difformis, 250 g ai/ha, Flood, read-out: Sedge, Umbrella plant response rating
How it was run: as §1

[6] = Preemergence, visual injury rating after approximately 10 d, read-out: Foxtail, Giant plant response rating (0 to 100 scale, 0 is no effect, 100 is complete control)
[7] = preemergence, visual injury rating about 10 d after treatment, 0 to 100 scale (0 no effect, 100 complete control), read-out: Foxtail, Giant plant response rating
[8] = 0 to 100 scale where 0 is no effect and 100 is complete control
[9] = scale of 0 to 100 where 0 is no effect and 100 is complete control
[10] = preemergence, 0 to 100 scale where 0 is no effect and 100 is complete control, approx. 10 d, read-out: Foxtail, Giant plant response rating
[11] = preemergence, 0 to 100 scale where 0 is no effect and 100 is complete control, read-out: Foxtail, Giant plant response rating
[12] = Preemergence, visual injury vs untreated controls after approximately 10 d, read-out: Foxtail, Giant plant response rating (0 to 100 scale where 0 is no effect and 100 is complete control)

| Compound | pest or weed control at 125 g/ha [1, 6] [%] | pest or weed control at 500 g/ha [1, 7] [%] | pest or weed control at 250 g/ha [2, 8] [%] | pest or weed control at 250 g/ha [3, 8] [%] | pest or weed control at 250 g/ha [4, 8] [%] | pest or weed control at 250 g/ha [5, 8] [%] | pest or weed control at 250 g/ha [2, 9] [%] | pest or weed control at 250 g/ha [3, 9] [%] | pest or weed control at 250 g/ha [4, 9] [%] | pest or weed control at 250 g/ha [5, 9] [%] | pest or weed control at 125 g/ha [1, 10] [%] | pest or weed control at 500 g/ha [1, 11] [%] | pest or weed control at 125 g/ha [1, 11] [%] | pest or weed control at 500 g/ha [1, 12] [%] | pest or weed control at 31 g/ha ([1]; Preemergence, 31 g ai/ha, 0 to 100 scale (0 no effect, 100 complete control), read-out: Plant response rating, Foxtail, Giant) [%] |
| --- | --- | --- | --- | --- | --- | --- | --- | --- | --- | --- | --- | --- | --- | --- | --- |
| O=C1NC[C@H](c2ccc3c(c2)CCC3)[C@H]1C(=O)Nc1cccc(F)c1F [Compound 1046] | 80 | 90 | 0 | 60 | 100 | 0 |  |  |  |  |  |  |  |  |  |
| CN1C[C@H](c2cc(F)cc(Cl)c2)[C@@H](C(=O)Nc2ccccc2S(C)(=O)=O)C1=O [Compound 979] | 90 | 100 |  |  |  |  | 0 | 60 | 100 | 0 |  |  |  |  |  |
| O=C1NC[C@H](c2ccc(F)c(OC(F)(F)C(F)F)c2)[C@H]1C(=O)Nc1cccc(F)c1F [Compound 1131] |  |  | 30 | 60 | 70 | 0 |  |  |  |  | 90 | 90 |  |  |  |
| Cc1ccc([C@H]2CNC(=S)[C@@H]2C(=O)Nc2cccc(F)c2F)cc1 (racemic) [Compound 946] | 0 | 20 |  |  |  |  | 0 | 0 | 0 | 0 |  |  |  |  |  |
| CN1CC[C@H](c2ccc(OC(F)(F)F)cc2)[C@@H](C(=O)Nc2ccccc2C(F)(F)F)C1=O [Compound 998] | 0 | 0 |  |  |  | 0 | 0 | 0 | 0 |  |  |  |  |  |  |
| CCOc1cccc([C@H]2CN(C)C(=O)[C@@H]2C(=O)Nc2cccc(F)c2F)c1 [Compound 956] | 100 | 100 |  |  |  |  | 0 | 70 | 100 | 0 |  |  |  |  |  |
| Cc1c(F)ccc([C@H]2CNC(=O)[C@@H]2C(=O)Nc2ccc(F)c(F)c2F)c1F [Compound 830] |  |  |  |  |  |  | 0 | 20 | 100 | 0 |  |  | 90 | 90 |  |
| CN1C[C@H](c2cccc(OC(F)(F)C(F)F)c2)[C@@H](C(=O)Nc2ccccc2S(C)(=O)=O)C1=O [Compound 864] |  |  |  |  |  |  | 40 | 50 | 90 | 50 |  |  | 90 | 90 |  |
| CSc1ccccc1NC(=O)[C@H]1C(=O)NC[C@@H]1c1cc(F)c(F)c(F)c1 [Compound 1124] |  |  | 0 | 0 | 95 | 0 |  |  |  |  | 90 | 90 |  |  |  |
| COc1c(F)ccc([C@H]2CN(C)C(=O)[C@@H]2C(=O)Nc2ccccc2F)c1Cl [Compound 892] |  |  |  |  |  |  | 0 | 65 | 80 | 0 |  |  | 100 | 100 |  |
| CN1C[C@H](c2cc(F)cc(F)c2)[C@@H](C(=O)Nc2ccc(C(F)(F)F)cc2)C1=O [Compound 968] | 30 | 60 |  |  |  |  | 0 | 0 | 30 | 0 |  |  |  |  |  |
| Cc1c(F)ccc([C@H]2CNC(=O)[C@@H]2C(=O)Nc2ccccc2C(F)(F)F)c1F [Compound 831] |  |  |  |  |  |  | 0 | 0 | 70 | 0 |  |  | 90 | 90 |  |
| O=C1NC[C@H](c2cccc(C(F)(F)F)c2)[C@H]1C(=O)Nc1cccc2c1OC(F)(F)O2 [Compound 827] |  |  |  |  |  |  | 0 | 30 | 75 | 0 |  |  | 90 | 90 |  |
| CN1CC[C@H](c2ccc(OC(F)(F)F)cc2)[C@@H](C(=O)Nc2cccc(F)c2F)C1=O [Compound 999] | 90 | 90 | 0 | 0 | 85 | 0 |  |  |  |  |  |  |  |  |  |
| Cc1c(F)ccc([C@H]2CNC(=O)[C@@H]2C(=O)Nc2ccccc2S(C)(=O)=O)c1F [Compound 832] |  |  |  |  |  |  | 15 | 0 | 100 | 0 |  |  | 0 | 80 |  |
| CSc1ccccc1NC(=O)[C@H]1C(=O)N(C)C[C@@H]1c1cc(C)cc(F)c1 [Compound 851] |  |  |  |  |  |  | 0 | 0 | 90 | 0 |  |  | 90 | 90 |  |
| Cc1cc([C@H]2CN(C)C(=O)[C@@H]2C(=O)Nc2cccc(F)c2F)cc(C)c1Br [Compound 1024] | 90 | 90 | 0 | 40 | 70 | 0 |  |  |  |  |  |  |  |  |  |
| CN1C[C@H](c2cc(F)cc(F)c2)[C@@H](C(=O)Nc2ccc(C(F)(F)F)cn2)C1=O [Compound 869] |  |  |  |  |  |  | 0 | 0 | 60 | 0 |  |  | 90 | 90 |  |
| COc1cc([C@H]2CN(C)C(=O)[C@@H]2C(=O)Nc2ccccc2F)cc(C(F)(F)F)c1 [Compound 855] |  |  |  |  |  |  | 0 | 70 | 75 | 0 |  |  | 90 | 90 |  |
| Cc1c(F)ccc([C@H]2CN(C)C(=O)[C@@H]2C(=O)Nc2cccc(F)c2F)c1F [Compound 834] |  |  |  |  |  |  | 0 | 60 | 65 | 0 |  |  | 90 | 100 |  |
| CCOc1cc([C@H]2CN(C)C(=O)[C@@H]2C(=O)Nc2cccc(F)c2F)cc(C(F)(F)F)c1 [Compound 971] | 90 |  |  |  |  |  | 45 | 60 | 85 | 0 |  |  |  |  | 70 |
| CN1C[C@H](c2cc(F)cc(F)c2)[C@@H](C(=O)Nc2cc(O)ccc2F)C1=O [Compound 992] | 0 | 0 |  |  |  | 0 | 0 | 0 | 0 |  |  |  |  |  |  |
| COc1c(F)ccc([C@H]2CN(C)C(=O)[C@@H]2C(=O)Nc2ccccc2C(F)(F)F)c1Cl [Compound 896] |  |  |  |  |  |  | 20 | 45 | 25 | 0 |  |  | 90 | 100 |  |
